This is an account of results in ChEMBL document CHEMBL5543174, “A Nonbactericidal Anionic Antimicrobial Peptide Provides Prophylactic and Therapeutic Efficacies against Bacterial Infections in Mice by Immunomodulatory-Antithrombotic Duality” (J Med Chem, 2024).

In data set [1] the test system is Platelet. Briefly: Anti-platelet aggregation activity in human Platelet rich plasma assessed as inhibition of ADP-induced aggregation at 100 ug/ml preincubated with compound for 5 mins followed by ADP addition by platelet aggregometry relative to control. The format is functional. More on the design: scale not given: the % may be the effect or the level left. As to conditions: dose 100 µg/ml.

For data set [2], the system named is Peritoneal macrophage. Description: Induction of chemotaxis in mouse Peritoneal macrophage assessed as upregulation of MCP-1 production at 100 ug/ml preincubated with PTX followed by compound addition by ELISA. The format is functional. Particulars: dose 100 µg/ml. (In an ELISA, binding on a coated surface is turned into a signal by an enzyme label.)
Data set [3] deals with Platelet. Briefly: Anti-platelet aggregation activity in human Platelet rich plasma assessed as inhibition of collagen-induced aggregation at 100 ug/ml preincubated with compound for 5 mins followed by collagen addition by platelet aggregometry relative to control. The data set is classed as functional. More on the design: scale not given: the % may be the effect or the level left. As to conditions: dose 100 µg/ml.

Data set [4] deals with Peritoneal macrophage cell. Briefly: Induction of chemotaxis in mouse Peritoneal macrophage assessed as upregulation of CXCL1 production at 100 ug/ml preincubated with PTX followed by compound addition by ELISA. The format is functional. As to conditions: dose 100 µg/ml.
Data set [5] relates to Peritoneal macrophage cell. Briefly: Induction of phagocytosis in mouse Peritoneal macrophage cultured with Carbapenem-resistant Escherichia coli assessed as number of surviving engulfed bacteria at 50 ug/ml incubated for 1.5 hrs followed by bacterial exposure for 1 hr by plate counting method. The format is functional. As to conditions: dose 50 µg/ml; time 2.5 hrs.
Data set [6] relates to Peritoneal macrophage cell. Briefly: Induction of phagocytosis in mouse Peritoneal macrophage cultured with Methicillin-resistant Staphylococcus aureus assessed as number of surviving engulfed bacteria at 25 ug/ml incubated for 1.5 hrs followed by bacterial exposure for 1 hr by plate counting method. The data set is classed as functional. Particulars: dose 25 µg/ml; time 2.5 hrs.

The test system of data set [7] is Peritoneal macrophage. Description: Induction of phagocytosis in mouse Peritoneal macrophage cultured with Carbapenem-resistant Escherichia coli assessed as number of surviving engulfed bacteria at 25 ug/ml incubated for 1.5 hrs followed by bacterial exposure for 1 hr by plate counting method. The data set is classed as functional. Particulars: dose 25 µg/ml; time 2.5 hrs.

Data set [8] deals with Peritoneal macrophage cell. Briefly: Induction of phagocytosis in mouse Peritoneal macrophage cultured with Methicillin-resistant Staphylococcus aureus assessed as number of surviving engulfed bacteria at 100 ug/ml incubated for 1.5 hrs followed by bacterial exposure for 1 hr by plate counting method. The format is functional. As to conditions: dose 100 µg/ml; time 2.5 hrs.

The test system of data set [9] is Peritoneal macrophage cell. Briefly: Induction of phagocytosis in mouse Peritoneal macrophage cultured with Methicillin-resistant Staphylococcus aureus assessed as number of surviving engulfed bacteria at 50 ug/ml incubated for 1.5 hrs followed by bacterial exposure for 1 hr by plate counting method. The format is functional. Particulars: dose 50 µg/ml; time 2.5 hrs.

The test system of data set [10] is Platelet. Briefly: Anti-platelet aggregation activity in human Platelet rich plasma assessed as inhibition of PMA-induced aggregation at 100 ug/ml preincubated with compound for 5 mins followed by PMA addition by platelet aggregometry relative to control. The data set is classed as functional. More on the design: scale not given: the % may be the effect or the level left. As to conditions: dose 100 µg/ml.

Data set [11] concerns Peritoneal macrophage. Description: Induction of chemotaxis in mouse Peritoneal macrophage assessed as upregulation of CXCL2 production at 100 ug/ml preincubated with PTX followed by compound addition by ELISA. The format is functional. As to conditions: dose 100 µg/ml.
For data set [12], the system named is Mus musculus. Description: Antithrombotic activity in FeCl3-induced carotid arterial thrombosis C57BL/6 mouse model assessed as increase in blood flow by measuring time to occlusion at 10 mg/kg,SC administration observed for 30 mins by laser speckle perfusion imaging analysis. The format is functional. As to conditions: 0.5 h.
Data set [13] deals with Peritoneal macrophage cell. Description: Induction of phagocytosis in mouse Peritoneal macrophage cultured with Carbapenem-resistant Escherichia coli assessed as number of surviving engulfed bacteria at 100 ug/ml incubated for 1.5 hrs followed by bacterial exposure for 1 hr by plate counting method. The format is functional. Particulars: dose 100 µg/ml; time 2.5 hrs.
Data set [14] can be described thus: Acute toxicity in C57BL/6 mouse assessed as change in creatinine level in serum at 30 mg/kg,ip administration measured after 24 hrs. The format is organism-based. Particulars: in vivo.
Data set [15] can be described thus: Acute toxicity in C57BL/6 mouse assessed as change in ALT level in serum at 30 mg/kg,ip administration measured after 24 hrs. The format is organism-based. As to conditions: in vivo.
A short description of data set [16]: Acute toxicity in C57BL/6 mouse assessed as change in creatinine level in serum at 10 mg/kg,ip administration measured after 24 hrs. The format is organism-based. As to conditions: in vivo.
The test system of data set [17] is Neutrophil. Description: Cytotoxicity against mouse bone marrow derived neutrophil at <= 200 ug/ml incubated for 24 hrs by CCK-8 assay. The format is toxicity, cell-based. Particulars: dose < 200 µg/ml. Background: Tetrazolium assays rely on reduction of a dye to a coloured formazan, in cell work by metabolically active cells.
Data set [18] can be described thus: Acute toxicity in C57BL/6 mouse assessed as change in ALT level in serum at 10 mg/kg,ip administration measured after 24 hrs. The format is organism-based. Particulars: in vivo.
In data set [19] the test system is Erythrocyte. Briefly: Hemolytic activity in mouse erythrocytes at 25 to 200 ug/ml incubated for 30 mins by absorbance based analysis. The data set is classed as toxicity, cell-based. Particulars: 0.5 h, dose 25-200 µg/ml.
In data set [20] the test system is Peritoneal macrophage. Briefly: Cytotoxicity against mouse Peritoneal macrophage at <= 200 ug/ml incubated for 24 hrs by CCK-8 assay. The data set is classed as toxicity, cell-based. Particulars: dose < 200 µg/ml.
Data set [21] concerns Erythrocyte. Description: Hemolytic activity in rabbit erythrocytes at 25 to 200 ug/ml incubated for 30 mins by absorbance based analysis. As to conditions: 0.5 h, dose 25-200 µg/ml. The format is toxicity, cell-based, Oryctolagus cuniculus.
Data set [22] deals with Staphylococcus aureus. Briefly: Antimicrobial activity against Methicillin-resistant Staphylococcus aureus assessed as reduction in metabolic activity at 2 times MIC incubated for 1 to 4 hrs by CCK-8 assay. The format is functional, organism-based. As to conditions: time 1-4 hrs.
The test system of data set [23] is Escherichia coli. Description: Antimicrobial activity against Carbapenem-resistant Escherichia coli assessed as reduction in metabolic activity at 2 times MIC incubated for 1 to 4 hrs by CCK-8 assay. Particulars: time 1-4 hrs. The data set is classed as functional, organism-based.
In data set [24] the test system is Escherichia coli. Briefly: Antimicrobial activity against Escherichia coli ATCC 25922 assessed as reduction in microbial colony forming unit at 2 times MIC incubated for 1 to 4 hrs by time-kill kinetics based analysis. The format is functional, organism-based. As to conditions: time 1-4 hrs.
Data set [25] concerns Candida albicans. Description: Antimicrobial activity against Candida albicans ATCC 2002 assessed as reduction in metabolic activity at 2 times MIC incubated for 1 to 4 hrs by CCK-8 assay. The data set is classed as functional, organism-based. As to conditions: time 1-4 hrs.
The subject of data set [26] is Staphylococcus aureus. Description: Antimicrobial activity against Staphylococcus aureus ATCC 25923 assessed as reduction in microbial colony forming unit at 2 times MIC incubated for 1 to 4 hrs by time-kill kinetics based analysis. The format is functional, organism-based. As to conditions: time 1-4 hrs.
Data set [27] concerns Staphylococcus aureus. Briefly: Antimicrobial activity against Staphylococcus aureus ATCC 25923 assessed as reduction in metabolic activity at 2 times MIC incubated for 1 to 4 hrs by CCK-8 assay. The format is functional, organism-based. Particulars: time 1-4 hrs.
In data set [28] the test system is Candida albicans. Briefly: Antimicrobial activity against Candida albicans ATCC 2002 assessed as reduction in microbial colony forming unit at 2 times MIC incubated for 1 to 4 hrs by time-kill kinetics based analysis. The format is functional, organism-based. As to conditions: time 1-4 hrs.
The test system of data set [29] is Escherichia coli. Briefly: Antimicrobial activity against Escherichia coli ATCC 25922 assessed as reduction in metabolic activity at 2 times MIC incubated for 1 to 4 hrs by CCK-8 assay. The format is functional, organism-based. As to conditions: time 1-4 hrs.
The test system of data set [30] is Escherichia coli. Description: Antimicrobial activity against Carbapenem-resistant Escherichia coli assessed as reduction in microbial colony forming unit at 2 times MIC incubated for 1 to 4 hrs by time-kill kinetics based analysis. The data set is classed as functional, organism-based. Particulars: time 1-4 hrs.
In data set [31] the test system is Staphylococcus aureus. Briefly: Antimicrobial activity against Methicillin-resistant Staphylococcus aureus assessed as reduction in microbial colony forming unit at 2 times MIC incubated for 1 to 4 hrs by time-kill kinetics based analysis. The format is functional, organism-based. As to conditions: time 1-4 hrs.

Calls of active or inactive are those of the source. The rule behind the calls is not given here.

In the case of `CC[C@H](C)[C@H](NC(=O)[C@@H]1CSSC[C@H](NC(=O)[C@H](CCC(=O)O)NC(=O)[C@@H](NC(=O)[C@H](CCCCN)NC(=O)[C@H](Cc2c[nH]cn2)NC(=O)[C@@H](NC(=O)[C@H](CCCCN)NC(=O)[C@H](CCC(=O)O)NC(=O)[C@H](C)NC(=O)[C@H](CCC(=O)O)NC(=O)[C@H](CCC(=O)O)NC(=O)[C@H](CCC(=O)O)NC(=O)[C@H](C)N)[C@@H](C)O)[C@@H](C)O)C(=O)N[C@@H](CC(C)C)C(=O)N[C@@H](CCC(=O)O)C(=O)N1)C(=O)N[C@@H](Cc1ccccc1)C(=O)N[C@H](C(=O)N[C@@H](CC(C)C)C(=O)N[C@@H](CC(C)C)C(=O)N1CCC[C@H]1C(=O)N1CCC[C@H]1C(=O)N[C@@H](C)C(=O)O)[C@@H](C)O` [listing 1 of 2 here], the Activity in data set [1] worked out at 54.2%; in [2], 52.8%; in data set [3], 57.72%; in [4] it was 56.8%; in data set [5], 245; in [6], 793. In addition, the Activity in data set [7] came out at 279; in data set [8] it was 244; in data set [9], 532; in [10], 78.01%; in data set [11] it was 63.2%; in data set [13] it was 234. In [12], the Time stood at 28.5 min.

For the compound `CC[C@H](C)[C@H](NC(=O)[C@@H]1CSSC[C@H](NC(=O)[C@H](CCC(=O)O)NC(=O)[C@@H](NC(=O)[C@H](CCCCN)NC(=O)[C@H](Cc2c[nH]cn2)NC(=O)[C@@H](NC(=O)[C@H](CCCCN)NC(=O)[C@H](CCC(=O)O)NC(=O)[C@H](C)NC(=O)[C@H](CCC(=O)O)NC(=O)[C@H](CCC(=O)O)NC(=O)[C@H](CCC(=O)O)NC(=O)[C@H](C)N)[C@@H](C)O)[C@@H](C)O)C(=O)N[C@@H](CC(C)C)C(=O)N[C@@H](CCC(=O)O)C(=O)N1)C(=O)N[C@@H](Cc1ccccc1)C(=O)N[C@H](C(=O)N[C@@H](CC(C)C)C(=O)N[C@@H](CC(C)C)C(=O)N1CCC[C@H]1C(=O)N1CCC[C@H]1C(=O)N[C@@H](C)C(=O)O)[C@@H](C)O` [listing 2 of 2 here], the Activity result in data set [14], in data set [15], in data set [16], in data set [17], in [18] and in data set [19] was “Non-Toxic” each time. The Activity result in data set [20] and in data set [21] was “Non-Toxic” throughout.

Take `C[C@@H](O)[C@H]1C(=O)N2C(C(=O)O)=C(S[C@@H]3CN[C@H](C(=O)N(C)C)C3)[C@H](C)[C@H]12`: the result in [22], in data set [23], in data set [24], in data set [25], in data set [26] and in data set [27] was Active. Moreover, the result in data set [28], in [29], in data set [30] and in [31] was Active.

For the compound `CC[C@H](C)[C@H](NC(=O)[C@H](CCCCN)NC(=O)[C@H](CCC(=O)O)NC(=O)[C@H](CCCCN)NC(=O)[C@H](CO)NC(=O)[C@H](CCCCN)NC(=O)[C@H](CCCNC(=N)N)NC(=O)[C@H](Cc1ccccc1)NC(=O)[C@H](Cc1ccccc1)NC(=O)[C@H](CC(=O)O)NC(=O)CNC(=O)[C@H](CC(C)C)NC(=O)[C@@H](N)CC(C)C)C(=O)NCC(=O)N[C@@H](CCCCN)C(=O)N[C@@H](CCC(=O)O)C(=O)N[C@@H](Cc1ccccc1)C(=O)N[C@@H](CCCCN)C(=O)N[C@@H](CCCNC(=N)N)C(=O)N[C@H](C(=O)N[C@H](C(=O)N[C@@H](CCC(N)=O)C(=O)N[C@@H](CCCNC(=N)N)C(=O)N[C@H](C(=O)N[C@@H](CCCCN)C(=O)N[C@@H](CC(=O)O)C(=O)N[C@@H](Cc1ccccc1)C(=O)N[C@@H](CC(C)C)C(=O)N[C@@H](CCCNC(=N)N)C(=O)N[C@@H](CC(N)=O)C(=O)N[C@@H](CC(C)C)C(=O)N[C@H](C(=O)N1CCC[C@H]1C(=O)N[C@@H](CCCNC(=N)N)C(=O)N[C@H](C(=O)N[C@@H](CCC(=O)O)C(=O)N[C@@H](CO)C(=O)O)[C@@H](C)O)C(C)C)[C@@H](C)CC)C(C)C)[C@@H](C)CC`, the result in data set [22], in data set [23], in data set [24], in data set [25], in [26] and in [27] was Active. In addition, the outcome in data set [28], in data set [29], in data set [30] and in [31] was Active.
